{"source": "patent US4428806A", "about": "“Process for producing brominated 1,3-dioxolen-2-ones” (priority 1981, dated 1984)", "key": {"[1]": {"assay": "Conversion to ampicillin in 40% mouse blood (incubation and bioautography)", "format": "in vitro ADME", "procedure": "The resulting ampicillin ester hydrochloride was incubated at 37° C. for 10 minutes in 40% mouse blood, and then bioautographed.\nThe resulting ampicillin (5-phenyl-2-oxo-1,3-dioxolen-4-yl)methyl ester hydrochloride was incubated at 37° C. for […] in 40% mouse blood, and then bioautographed.\nThe product was incubated and bioautographed in the same way as in Referential Example 1."}, "in vitro [2]": {"assay": "in vitro", "format": "in vitro ADME", "conditions": "pH 7.5", "procedure": "(§1) 1. Test compounds: A and B above\nEach of the test compounds was dissolved in a basic medium (pH 7.5) consisting of 35.8 g of disodium phosphate, 6.0 ml of 10% hydrochloric acid and 2.8 g of pancreatin and 1000 ml of water, and the degree of hydrolysis of each test compound was determined as in the case of the acidic medium."}, "in vitro [3]": {"assay": "in vitro", "format": "in vitro ADME", "conditions": "pH 1.2", "procedure": "as §1\nEach of the test compounds was dissolved in an acidic medium (pH 1.2) consisting of 2.0 g of sodium chloride, 24 ml of 10% hydrochloric acid, 3.2 g of pepsin and 1000 ml of water. The solution was shaken at 37° C., and sampled periodically. The sample was subjected to high-performance liquid chromatography using a reversed phase partition column, and the degree of hydrolysis of each of the test compounds was determined from a decrease in its peak height."}, "[4]": {"assay": "Blood level in oral administration (ampicillin concentration in serum, bioassay)", "format": "in vivo, mice (ddY-strain)", "conditions": "mice; for Ratio of the concentration of ampicillin in the serum: 50 mg/kg as ampicillin, ratio to ampicillin trihydrate (C = 1.0)", "procedure": "Each of the test compounds (as an aqueous solution having a concentration of 5 mg/ml as ampicillin) was orally administered in a dose of 50 mg/kg as ampicillin to four week old mice (ddY-strain, body weight about 20 g, five per group) which were caused to fast overnight. The blood was taken from the mice periodically, and the concentration of ampicillin in the serum was measured by a bioassay method. The blood Ampicillin level ratio was calculated from the following equation. [formula]"}}, "note": "Where a name gives a salt, the structure may show the parent alone. Read-outs that look alike come from different tables or passages of the source."}
{"smiles": "CC1(C)S[C@@H]2[C@H](NC(=O)[C@H](N)c3ccccc3)C(=O)N2[C@H]1C(=O)OCc1oc(=O)oc1-c1ccccc1", "note": "[Referential Example 2, ampicillin (5-phenyl-2-oxo-1,3-dioxolen-4-yl)methyl ester hydrochloride]", "values": [{"measurement": "Conversion to ampicillin in mouse blood", "setting": "[1]", "result": "completely changed to ampicillin"}]}
{"smiles": "CC1(C)S[C@@H]2[C@H](NC(=O)[C@H](N)c3ccccc3)C(=O)N2[C@H]1C(=O)OC1CCCc2oc(=O)oc21", "note": "(stereo partly drawn) [Referential Example 1, ampicillin (2,3-carbonyldioxy-2-cyclohexenyl) ester hydrochloride]", "values": [{"measurement": "Conversion to ampicillin in mouse blood", "setting": "[1]", "result": "changed completely to ampicillin"}]}
{"smiles": "CC1(C)S[C@@H]2[C@H](NC(=O)[C@H](N)c3ccccc3)C(=O)N2[C@H]1C(=O)OC1OC(=O)c2ccccc21", "note": "(stereo partly drawn) [B, Ampicillin phthalidyl ester hydrochloride]", "values": [{"measurement": "metabolised at 20 min", "setting": "in vitro [2]; basic medium with pancreatin", "result": 90, "unit": "%"}, {"measurement": "metabolised at 1 h", "setting": "in vitro [2]; basic medium with pancreatin", "result": 100, "unit": "%"}, {"measurement": "metabolised at 20 h", "setting": "in vitro [3]; acidic medium with pepsin", "result": 100, "unit": "%"}]}
{"smiles": "CC1(C)S[C@@H]2[C@H](NC(=O)[C@H](N)c3ccccc3)C(=O)N2[C@H]1C(=O)O", "note": "[C, Ampicillin trihydrate]", "values": [{"measurement": "Ratio of the concentration of ampicillin in the serum", "setting": "[4]; 15 min", "result": 1.0}, {"measurement": "Ratio of the concentration of ampicillin in the serum", "setting": "[4]; 30 min", "result": 1.0}, {"measurement": "Ratio of the concentration of ampicillin in the serum", "setting": "[4]; 60 min", "result": 1.0}, {"measurement": "Ratio of the concentration of ampicillin in the serum", "setting": "[4]; 90 min", "result": 1.0}, {"measurement": "Ratio of the concentration of ampicillin in the serum", "setting": "[4]; 120 min", "result": 1.0}, {"measurement": "Ratio of the concentration of ampicillin in the serum", "setting": "[4]; 180 min", "result": 1.0}]}
{"smiles": "Cc1oc(=O)oc1COC(=O)[C@@H]1N2C(=O)[C@@H](NC(=O)[C@H](N)c3ccccc3)[C@H]2SC1(C)C", "note": "[A, Ampicillin (5-methyl-2-oxo-1,3-dioxolen-4-yl) methyl ester hydrochloride]", "values": [{"measurement": "Absorption, conversion to ampicillin and blood level (in words)", "setting": "[4]; compared with C and B", "result": "easily absorbed and converted back to the original ampicillin in vivo, and shows a high blood level over a longer period of time than ampicillin (C) and the known ampicillin ester (B)"}, {"measurement": "Conversion to ampicillin in mouse blood", "setting": "[1]; 40% mouse blood, 37° C., 10 minutes", "result": "completely changed to ampicillin"}, {"measurement": "metabolised at 1 h", "setting": "in vitro [2]; basic medium with pancreatin", "result": 80, "unit": "%"}, {"measurement": "Stability in the basic medium (in words)", "setting": "in vitro [2]", "result": "much more stable than the known control compound (B)"}, {"measurement": "metabolised at 1 h", "setting": "in vitro [3]; acidic medium with pepsin", "result": 7, "unit": "%"}, {"measurement": "metabolised at 4 h", "setting": "in vitro [3]; acidic medium with pepsin", "result": 20, "unit": "%"}, {"measurement": "Stability in the acidic medium (in words)", "setting": "in vitro [3]", "result": "much more stable than the known control compound (B)"}]}
